Assay results taken from patent US9896662B2, “Process for enhancing stem cell bioactivity using tauroursodeoxycholic acid” (Pusan National University Industry—University Cooperation …, priority 2014, dated 2018).

Columns and labels:
angiogenic stem cells [1] = experiment: proliferation capability of angiogenic stem cells; type: cell-based; details: 50 μM of TUDCA (tested 0, 10, 50, 100 μM)
Procedure: (§1) In order to confirm that the treatment with TUDCA involves enhancement of biological activity functions of angiogenic stem cells in addition to enhancement of mobilization and migration capabilities of angiogenic stem cells from bone marrow to peripheral blood and ischemic tissue, angiogenic stem cells were treated with different concentrations (0, 10, 50, 100 μM) of TUDCA. Then, various biological activity functions were evaluated. […] In order to confirm vascular differentiation potential, tube-forming capability was examined.

[2] = system: CD34+ hematopoietic stem cells (HSCs); experiment: trans-well assay of cell migration capability; type: cell-based; details: TUDCA 0, 10, 50, 100 μM; concentration-dependent
Procedure: (§2) In order to confirm mobilization capability of angiogenic stem cells, which were dissociated from bone marrow stromal cells, to peripheral blood, CD34^+ hematopoietic stem cells (HSCs) were treated with various concentrations of TUDCA (0, 10, 50, 100 μM), to confirm the cell migration capability by trans-well assay. […] Based on the result, TUDCA (10 mg/kg) was orally administered to C57BL/6 mice, and the number of angiogenic stem cells (CD34^+/Sca1^+) in peripheral blood were analyzed by FACS analysis over time (at day 0, 1, 3).

CD34+ HSCs = experiment: EPC colony forming capability of CD34+ HSCs (differentiation into the EPC lineage); type: cell-based
Excerpt: (§3) Meanwhile, in order to clarify the impact of TUDCA on CD34^+ HSC differentiation into the EPC lineage, the EPC colony forming capability of CD34^+ HSCs was examined. As a result, it was confirmed that the EPC colony forming capability was enhanced by TUDCA (FIG. 4e). Further, as Akt activation via PI3-kinase increases differentiation of CD34^+ HSCs into the EPC lineage, it was examined whether TUDCA activates Akt in CD34^+ HSC. As a result, it was confirmed that TUDCA increased Akt phosphorylation, and the exposure to LY294002, a PI3K inhibitor, inhibited TUDCA-mediated CD34^+ HSC differentiation into the EPC lineage (FIG. 4f).

[3] = system: CD44, N-cadherin, c-kit, and LFA1 in HAECs; experiment: mRNA expression levels of cell adhesion molecules in HAECs; type: cell-based, Human
Excerpt: (§4) Further, as the first step of integration with vascular endothelial cells is cell adhesion, mRNA expression levels of cell adhesion molecules in HAECs and EPCs were examined.

[4] = system: angiogenic stem cells in peripheral blood; experiment: Hill's assay of cell populations mobilized to peripheral blood; type: in vivo; details: oral, mice; concentration and time-dependent
Procedure: (§5) When TUDCA was orally administered, a variety of cell populations are mobilized to peripheral blood. After orally administering TUDCA to mice, the cell populations were analyzed by Hill's assay. As a result, it was confirmed that the number of angiogenic stem cells increased in TUDCA concentration and time-dependent manner (FIGS. 4a and 4b). In order to confirm side effects caused by mobilization of cell populations associated with immunity and inflammation, other than angiogenic stem cells, upon treatment with TUDCA, the change in the number of leukocytes, lymphocytes, monocytes, and granulocytes in peripheral blood was confirmed by complete blood cell (CBC) count. […] Also, it was confirmed that […] are EPCs by confirming the uptake of acetyl-LDL and FITC-isolectin B4 (FIG. 4d).

[5] = system: leukocytes, lymphocytes, monocytes, and granulocytes in peripheral blood; experiment: complete blood cell (CBC) count; type: in vivo; details: oral, mice, 10 mg/kg for 3 days
Procedure: as §5

hindlimb ischemic tissue [6] = experiment: hindlimb ischemia model in GFP bone marrow-transplanted mice, oral TUDCA; type: in vivo, GFP-BMT mice (C57BL/6); details: 20 mg/kg oral, GFP-BMT mice
Excerpt: It is known that angiogenic stem cells are mainly present in bone marrow, but they are present in different tissues than bone marrow. In order to confirm whether angiogenic stem cells are derived from bone marrow by TUDCA and involved in vascular repair mechanism, bone marrow was isolated from green fluorescent protein (GFP) mice and transplanted into C57BL/6. Once bone marrow transplantation (BMT) mice are thus prepared, chimeric mice which show green fluorescence only for bone marrow cells are obtained. After preparing hindlimb ischemia animal models using GFP-BMT mice, TUDCA (20 mg/kg) was orally administered to verify vascular repair capability. […] In order to confirm angiogenesis by TUDCA, hindlimb ischemic tissue was removed 14 days after the preparation of the hindlimb ischemia models and subjected to immunofluorescent staining, to verify capillary and arteriole density. […] In order to confirm whether angiogenic stem cells were mobilized by TUDCA from bone marrow to hindlimb ischemic tissue, mobilization capability of angiogenic stem cells was examined by immunofluorescent staining using a bone marrow marker GFP, an angiogenic stem cell marker c-kit, a vascular marker ILB4, into which hindlimb ischemic tissue removed from the hindlimb ischemia models was transplanted 3 days after the preparation. […] In order to examine whether angiogenic stem cells mobilized by TUDCA from bone marrow differentiate into new blood vessels in hindlimb ischemic tissue, vascular differentiation potential of angiogenic stem cells was examined, through immunofluorescent staining and morphological analysis, using a bone marrow marker GFP, a marker of vascular differentiation VEGFR, a vascular marker ILB4, into which hindlimb ischemic tissue removed from the hindlimb ischemia models was transplanted 14 days after the preparation.

[7] = system: senescent angiogenic stem cells (passages 13 to 16); experiment: β-galactosidase staining of senescent angiogenic stem cells; type: cell-based
Procedure: In order to use stem cells as a stem cell therapy product, it is important to obtain a sufficient number of stem cells in a healthy state. However, upon in vitro expansion of stem cells for obtaining a sufficient number of stem cells, repeated passages cause senescence of stem cells. In order to resolve this problem, angiogenic stem cells subjected to repeated passages (passages 13 to 16) were treated with TUDCA, to verify senescence inhibition. Senescent angiogenic stem cells were treated with TUDCA and subjected to β-galactosidase staining capable of confirming senescence, to confirm senescence recovery.

angiogenic stem cells [8] = experiment: infiltration capability of angiogenic stem cells; type: cell-based; details: 50 μM of TUDCA
Procedure: as §1

[9] = system: senescent angiogenic stem cells; experiment: nitric oxide and reactive oxygen species in senescent angiogenic stem cells; type: cell-based; details: senescent angiogenic stem cells treated with TUDCA
[10] = system: ICAM, Jagged1, N-cadherin, LFA1, and c-kit; experiment: mRNA expression of cell adhesion factors in CD34+ cells; type: cell-based; details: TUDCA 50 μM for 5 hours
Procedure: Based thereon, a change in mRNA expression of cell adhesion factors involved in cell adhesion was confirmed. After treating CD34^+ cells with TUDCA (50 μM) for 5 hours, mRNA expression of ICAM, Jagged′, N-cadherin, LFA1, and c-kit, which are involved in cell adhesion, was confirmed.

[11] = system: CD44, Jagged-1, N-cadherin, VLA5, CXCR4, c-kit, and Notch in EPCs; experiment: mRNA expression levels of cell adhesion molecules in EPCs; type: cell-based
Excerpt: as §4

[12] = system: angiogenic stem cells (CD34+/Sca1+) in peripheral blood; experiment: FACS analysis of angiogenic stem cells in peripheral blood after oral administration; type: in vivo; details: 10 mg/kg oral, C57BL/6 mice, day 0, 1, 3
Procedure: as §2

[13] = system: Human arterial endothelial cells (HAECs) mixed with angiogenic stem cells; experiment: tube formation assay of HAECs mixed with angiogenic stem cells; type: cell-based; details: TUDCA 50 μM
Excerpt: It is the most significant process in the vascular recovery mechanism that angiogenic stem cells mobilized from bone marrow are integrated with vascular endothelial cells preexisting in damaged tissue, to generate new blood vessels through interaction. Human arterial endothelial cells (HAECs) were mixed with angiogenic stem cells, and then the integration capability between the two cells was examined by tube formation assay.

Akt = Akt activation in CD34+ HSC; type: cell-based
Excerpt: as §3

[14] = system: angiogenic stem cells and cell populations in peripheral blood; experiment: oral administration to healthy subjects: cell populations mobilized to peripheral blood; type: in vivo, human; details: 5 mg/kg oral for 3 days
Procedure: Upon oral administration of TUDCA to healthy subjects, angiogenic stem cells and various cell populations, which were mobilized to peripheral blood, were confirmed and differentiation potential into functional endothelial progenitor cells was verified using peripheral blood. 5 mg/kg of TUDCA was orally administered to healthy subjects for 3 days, and the expression of angiogenic stem cell markers was examined.

[15] = system: CD34+ cells on bone marrow stromal cells; experiment: adhesion and dissociation of CD34+ cells on bone marrow stromal cells (fluorescence microscope count); type: cell-based; details: TUDCA 50, 100 μM, incubated 1 hour, compared with the control
Procedure: When ischemic damage occurs, for vascular repair, a process in which angiogenic stem cells integrated with bone marrow stromal cells are dissociated from bone marrow and transported to ischemic tissue first occurs in the vascular repair mechanism. In order to confirm a change in dissociation of angiogenic stem cells from bone marrow stromal cells by TUDCA, CD34^+ cells stained with CM-DiI (staining red), which were treated with TUDCA (0, 50, 100 μM), were incubated for 1 hour on glass slides in which bone marrow stromal cells were seeded. The number of CD34^+ cells adhered to or dissociated from bone marrow stromal cells was counted by a fluorescence microscope (FIGS. 1a, 1b, and 1c). AMD3100, a CXCR4 antagonist, was used as a positive control.

angiogenic stem cells [16] = experiment: tube-forming capability of angiogenic stem cells; type: cell-based; details: TUDCA 0, 10, 50, 100 μM; concentration-dependent
Procedure: as §1

hindlimb ischemic tissue [17] = experiment: mouse hindlimb ischemia model, oral TUDCA; type: in vivo; details: 20 mg/kg oral every day
Procedure: TUDCA was applied to mouse disease models based on the above experiments, to verify the effects. Mouse hindlimb ischemia model, which is one of the disease animals, for verifying vascular repair capability was prepared. Thereafter, 20 mg/kg of TUDCA was orally administered to mice every day, to confirm vascular repair capability over time. […] In order to confirm whether angiogenic stem cells were mobilized by TUDCA to hindlimb ischemic tissue, hindlimb ischemic tissue was removed 3 days after the preparation of the hindlimb ischemia models, and flow cytometry was performed using an angiogenic stem cell marker. As a result, it was confirmed that the number of angiogenic stem cells in ischemic tissue increased in the group to which TUDCA was orally administered (FIG. 7c). In order to confirm angiogenesis by TUDCA, hindlimb ischemic tissue was removed 14 days after the preparation of the hindlimb ischemia models and subjected to immunofluorescent staining, to verify capillary density and arteriole density.

[18] = day 14, immunofluorescent staining

C[C@H](CCC(=O)NCCS(=O)(=O)O)[C@H]1CC[C@H]2[C@@H]3[C@@H](O)C[C@@H]4C[C@H](O)CC[C@]4(C)[C@H]3CC[C@]12C [TUDCA, tauroursodeoxycholic acid]
proliferation capability of angiogenic stem cells (angiogenic stem cells [1]): most significantly increased | migration capability of CD34+ cells [2]: significantly increased | EPC colony forming capability of CD34+ HSCs (CD34+ HSCs): enhanced | mRNA expression levels of CD44, N-cadherin, c-kit, and LFA1 [3]: significantly increased | number of angiogenic stem cells (Hill's assay) [4]: increased | number of granulocytes involved in inflammatory response [5]: significantly decreased | blood flow (LDPI assay) (hindlimb ischemic tissue [6]): significantly improved | number of angiogenic stem cells derived from bone marrow into ischemic tissue (hindlimb ischemic tissue [6]; day 3, GFP/c-kit/ILB4 staining): significantly increased | number of arterioles (hindlimb ischemic tissue [6]; day 14): significantly increased | number of capillaries (hindlimb ischemic tissue [6]; day 14): significantly increased | number of bone marrow-derived angiogenic stem cells differentiated into vascular endothelial cells (hindlimb ischemic tissue [6]; day 14, GFP/VEGFR/ILB4 staining): significantly increased | number of β-galactosidase positive cells [7]: significantly increased | infiltration capability of angiogenic stem cells (angiogenic stem cells [8]): most significantly increased | expression amount of nitric oxide [9]: significantly increased | expression amount of reactive oxygen species [9]: significantly decreased | mRNA expression of cell adhesion factors (ICAM, Jagged1, N-cadherin, LFA1, c-kit) [10]: significantly decreased | mRNA expression levels of CD44, Jagged-1, N-cadherin, VLA5, CXCR4, c-kit, and Notch [11]: significantly increased | number of angiogenic stem cells (CD34+/Sca1+) in peripheral blood [12]: significantly increased | tube formation capability [13]: significantly increased | Akt phosphorylation (Akt): increased | colony forming capability (EPC-CFA) [14]: significantly increased | distribution of granulocytes involved in inflammatory response [14]: significantly decreased | expression of angiogenic stem cell markers CD34, CD31, and c-kit [14]: significantly increased | number of CD34+ cells adhered to the stromal cells [15]: significantly decreased | number of CD34+ cells dissociated from the stromal cells [15]: significantly increased | tube-forming capability of angiogenic stem cells (angiogenic stem cells [16]): significantly increased | blood flow improvement (LDPI assay) (hindlimb ischemic tissue [17]): significantly increased | number of angiogenic stem cells in ischemic tissue (flow cytometry) (hindlimb ischemic tissue [17]; day 3): increased | number of arterioles (hindlimb ischemic tissue [17]; [18]): significantly increased | number of capillaries (hindlimb ischemic tissue [17]; [18]): significantly increased
